Data from patent US8952024B2, “Herbicidal pyrimidone derivatives” (E I du Pont de Nemours and Company, priority 2009, dated 2015).
Read-outs that look alike come from different tables or passages of the source.

What was measured:
Assay in all cases: Test B pre-/postemergence plant response
Format in all cases: in vivo
[1] = system: wild oat (Avena fatua); details: Preemergence, 125 g ai/ha; 0 to 100 scale
Summary of the method: (§1)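 Pre-em in loam/sand; post-em at 1–4 leaf (2–18 cm) in peat mix. Solvent + surfactant formulation. Greenhouse 13–15 d; visual % control vs untreated, 0–100.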

[2] = system: morningglory (Ipomoea coccinea)
Summary of the method: as §1

[3] = system: pigweed (Amaranthus retroflexus)
Summary of the method: as §1

[4] = system: Surinam grass (Brachiaria decumbens)
Summary of the method: as §1

[5] = system: lambsquarters (Chenopodium album); details: for pest or weed control at 62 g/ha: 62 g ai/ha
Summary of the method: as §1

[6] = system: green foxtail (Setaria viridis); details: for pest or weed control at 31 g/ha: 31 g ai/ha, scale 0 to 100 (0 no effect, 100 complete control); for pest or weed control at 62 g/ha: 62 g ai/ha
Summary of the method: as §1

[7] = system: large crabgrass (Digitaria sanguinalis); details: for pest or weed control at 31 g/ha: 31 g ai/ha, scale 0 to 100 (0 no effect, 100 complete control); for pest or weed control at 62 g/ha: 62 g ai/ha
Summary of the method: as §1

[8] = system: velvetleaf (Abutilon theophrasti)
Summary of the method: as §1

[9] = system: woolly cupgrass (Eriochloa villosa); details: for pest or weed control at 31 g/ha: 31 g ai/ha, scale 0 to 100 (0 no effect, 100 complete control); for pest or weed control at 62 g/ha: 62 g ai/ha
Summary of the method: as §1

[10] = Preemergence, 125 g ai/ha, 0 to 100 scale
[11] = Postemergence, 250 g ai/ha, scale 0 to 100

`Cc1c(F)cccc1-n1c(-c2ccccc2)ncc(C(=O)C2=C(O)CCCC2=O)c1=O` [Compound 47, 3-(3-fluoro-2-methylphenyl)-5-[(2-hydroxy-6-oxo-1-cyclohexen-1-yl)carbonyl]-2-phenyl-4(3H)-pyrimidinone] was tested, and the “Oat, Wild plant response rating” value [1] was 0, the pest or weed control at 62 g/ha ([2]; Ipomoea, post-emergence, Postemergence, 62 g ai/ha, scale 0 (no effect) to 100 (complete control), 13 to 15 days, read-out: Plant response rating, Morningglory) was 80% and the pest or weed control at 125 g/ha ([2]; Ipomoea, post-emergence, Postemergence, 125 g ai/ha, visual rating after 13 to 15 days, scale 0 (no effect) to 100 (complete control)) was 90%. For the same compound, the pest or weed control at 250 g/ha ([2]; Ipomoea, pre-emergence, 250 g ai/ha, Preemergence, 0 to 100 scale, read-out: Plant response rating, Morningglory) was 55%, the pest or weed control at 31 g/ha ([2]; Ipomoea, pre-emergence, Preemergence, 31 g ai/ha, scale 0 to 100 (0 no effect, 100 complete control), read-out: Plant response rating, Morningglory) was 0% and the “Morningglory plant response rating” value [2, 10] was 0. The pest or weed control at 62 g/ha ([3]; Amaranthus retroflexus, post-emergence, Postemergence, 62 g ai/ha, scale 0 (no effect) to 100 (complete control), 13 to 15 days, read-out: Plant response rating, Pigweed) was 98%, the pest or weed control at 125 g/ha ([3]; Amaranthus retroflexus, post-emergence, Postemergence, 125 g ai/ha, visual rating after 13 to 15 days, scale 0 (no effect) to 100 (complete control)) was 100% and the pest or weed control at 250 g/ha ([3]; Amaranthus retroflexus, pre-emergence, 250 g ai/ha, Preemergence, 0 to 100 scale, read-out: Plant response rating, Pigweed) was 100%. The pest or weed control at 31 g/ha ([3]; Amaranthus retroflexus, pre-emergence, Preemergence, 31 g ai/ha, scale 0 to 100 (0 no effect, 100 complete control), read-out: Plant response rating, Pigweed) was 98%, the “Pigweed plant response rating” value [3, 10] was 100 and the “Surinam Grass plant response rating” value [4, 10] was 100. The pest or weed control at 62 g/ha ([4]; Urochloa decumbens, post-emergence, Postemergence, 62 g ai/ha, scale 0 (no effect) to 100 (complete control), 13 to 15 days, read-out: Plant response rating, Surinam Grass) was 95%, the pest or weed control at 125 g/ha ([4]; Urochloa decumbens, post-emergence, Postemergence, 125 g ai/ha, visual rating after 13 to 15 days, scale 0 (no effect) to 100 (complete control)) was 98% and the pest or weed control at 250 g/ha ([4]; Urochloa decumbens, pre-emergence, 250 g ai/ha, Preemergence, 0 to 100 scale, read-out: Plant response rating, Surinam Grass) was 100%. For the same compound, the pest or weed control at 31 g/ha ([4]; Urochloa decumbens, pre-emergence, Preemergence, 31 g ai/ha, scale 0 to 100 (0 no effect, 100 complete control), read-out: Plant response rating, Surinam Grass) was 85%, the pest or weed control at 62 g/ha ([5]; Chenopodium album, post-emergence, Postemergence, scale 0 (no effect) to 100 (complete control), 13 to 15 days, read-out: Plant response rating, Lambsquarters) was 98% and the pest or weed control at 125 g/ha ([5]; Chenopodium album, post-emergence, Postemergence, 125 g ai/ha, visual rating after 13 to 15 days, scale 0 (no effect) to 100 (complete control)) was 98%. The pest or weed control at 250 g/ha ([5]; Chenopodium album, pre-emergence, 250 g ai/ha, Preemergence, 0 to 100 scale, read-out: Plant response rating, Lambsquarters) was 100%, the pest or weed control at 31 g/ha ([5]; Chenopodium album, pre-emergence, Preemergence, 31 g ai/ha, scale 0 to 100 (0 no effect, 100 complete control), read-out: Plant response rating, Lambsquarters) was 100% and the pest or weed control at 62 g/ha ([5]; Chenopodium album, pre-emergence, Preemergence, scale 0 to 100, 0 no effect, 100 complete control, read-out: Plant response rating, Lambsquarters) was 100%. For the same compound, the “Lambsquarters plant response rating” value [5, 11] was 100, the “Lambsquarters plant response rating” value [5, 10] was 100 and the “Foxtail, Green plant response rating” value [6, 11] was 95. For the same compound, the “Foxtail, Green plant response rating” value [6, 10] was 98, the pest or weed control at 31 g/ha ([6]; Setaria viridis, post-emergence, Postemergence, read-out: Plant response rating, Foxtail, Green) was 80% and the pest or weed control at 62 g/ha ([6]; Setaria viridis, post-emergence, Postemergence, scale 0 (no effect) to 100 (complete control), 13 to 15 days, read-out: Plant response rating, Foxtail, Green) was 90%. It also gave a pest or weed control at 125 g/ha ([6]; Setaria viridis, post-emergence, Postemergence, 125 g ai/ha, visual rating after 13 to 15 days, scale 0 (no effect) to 100 (complete control)) of 95%, a pest or weed control at 250 g/ha ([6]; Setaria viridis, pre-emergence, 250 g ai/ha, Preemergence, 0 to 100 scale, read-out: Plant response rating, Foxtail, Green) of 98% and a pest or weed control at 31 g/ha ([6]; Setaria viridis, pre-emergence, Preemergence, read-out: Plant response rating, Foxtail, Green) of 65%. For the same compound, the pest or weed control at 62 g/ha ([6]; Setaria viridis, pre-emergence, Preemergence, scale 0 to 100, 0 no effect, 100 complete control, read-out: Plant response rating, Foxtail, Green) was 80%, the pest or weed control at 31 g/ha ([7]; Digitaria sanguinalis, post-emergence, Postemergence, read-out: Plant response rating, Crabgrass, Large) was 85% and the pest or weed control at 62 g/ha ([7]; Digitaria sanguinalis, post-emergence, Postemergence, scale 0 (no effect) to 100 (complete control), 13 to 15 days, read-out: Plant response rating, Crabgrass, Large) was 85%. It also gave a pest or weed control at 125 g/ha ([7]; Digitaria sanguinalis, post-emergence, Postemergence, 125 g ai/ha, visual rating after 13 to 15 days, scale 0 (no effect) to 100 (complete control)) of 90%, a pest or weed control at 250 g/ha ([7]; Digitaria sanguinalis, pre-emergence, 250 g ai/ha, Preemergence, 0 to 100 scale, read-out: Plant response rating, Crabgrass, Large) of 100% and a pest or weed control at 31 g/ha ([7]; Digitaria sanguinalis, pre-emergence, Preemergence, read-out: Plant response rating, Crabgrass, Large) of 75%. For the same compound, the pest or weed control at 62 g/ha ([7]; Digitaria sanguinalis, pre-emergence, Preemergence, scale 0 to 100, 0 no effect, 100 complete control, read-out: Plant response rating, Crabgrass, Large) was 95%, the “Crabgrass, Large plant response rating” value [7, 11] was 100 and the “Crabgrass, Large plant response rating” value [7, 10] was 100. It also gave a pest or weed control at 62 g/ha ([8]; Abutilon theophrasti, post-emergence, 360 h, Postemergence, 62 g ai/ha, scale 0 (no effect) to 100 (complete control), 13 to 15 days, read-out: Plant response rating, Velvetleaf) of 85%, a pest or weed control at 125 g/ha ([8]; Abutilon theophrasti, post-emergence, 360 h, Postemergence, 125 g ai/ha, visual rating after 13 to 15 days, scale 0 (no effect) to 100 (complete control)) of 98% and a pest or weed control at 250 g/ha ([8]; Abutilon theophrasti, pre-emergence, 360 h, 250 g ai/ha, Preemergence, 0 to 100 scale, read-out: Plant response rating, Velvetleaf) of 100%. For the same compound, the pest or weed control at 31 g/ha ([8]; Abutilon theophrasti, pre-emergence, 360 h, Preemergence, 31 g ai/ha, scale 0 to 100 (0 no effect, 100 complete control), read-out: Plant response rating, Velvetleaf) was 80%, the “Velvetleaf plant response rating” value [8, 10] was 90 and the pest or weed control at 31 g/ha ([9]; Eriochloa villosa, post-emergence, Postemergence, read-out: Plant response rating, Cupgrass, Woolly) was 85%. It also gave a pest or weed control at 62 g/ha ([9]; Eriochloa villosa, post-emergence, Postemergence, scale 0 (no effect) to 100 (complete control), 13 to 15 days, read-out: Plant response rating, Cupgrass, Woolly) of 90%, a pest or weed control at 125 g/ha ([9]; Eriochloa villosa, post-emergence, Postemergence, 125 g ai/ha, visual rating after 13 to 15 days, scale 0 (no effect) to 100 (complete control)) of 90% and a pest or weed control at 250 g/ha ([9]; Eriochloa villosa, pre-emergence, 250 g ai/ha, Preemergence, 0 to 100 scale, read-out: Plant response rating, Cupgrass, Woolly) of 90%. For the same compound, the pest or weed control at 31 g/ha ([9]; Eriochloa villosa, pre-emergence, Preemergence, read-out: Plant response rating, Cupgrass, Woolly) was 0%, the pest or weed control at 62 g/ha ([9]; Eriochloa villosa, pre-emergence, Preemergence, scale 0 to 100, 0 no effect, 100 complete control, read-out: Plant response rating, Cupgrass, Woolly) was 45% and the “Cupgrass, Woolly plant response rating” value [9, 11] was 100. For the same compound, the “Cupgrass, Woolly plant response rating” value [9, 10] was 75.
